Assay in all cases: growth of human tumour cells (NCI), 48 h
For test [1], the system named is A498 renal.
Test [2] has as its system A549 NSCLC.
Test [3] relates to ACHN renal.
Test [4] concerns M14 melanoma.
Test [5] concerns NCI-H460 lung.
Test [6] deals with OVCAR-4 ovarian.
The test system of test [7] is PC-3 prostate.
Test [8] relates to SF-268 CNS.
In test [9] the test system is SN12C renal.
Test [10] has as its system U251 CNS.

SMILES strings stand for the structures. Where “and” joins values, the source holds several entries; their conditions need not be identical. Equal values may be shown once.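 Cells were grown in 96-well plates and exposed to each compound for 48 hours at five concentrations; endpoints were interpolated linearly between bracketing concentrations, or set to the highest concentration if not reached. GI50 marks 50% less growth. TGI: total growth inhibition.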

On to `COc1ccc(C2CC(c3cccc(Nc4ccnc5cc(Cl)ccc45)c3)=NN2C=O)cc1` (centres undefined), for which the GI50 in [1] is 0.325 µM; in [2] it was 0.527 µM; in [3], 0.867 µM; in test [4], 0.374 µM; in test [5] it was 0.415 µM; in test [6] it was 0.94 µM. Besides, the GI50 in test [7] was 0.577 µM; in [8], 1.37 µM; in test [9] it was 0.807 µM; in [10], 0.435 µM. The TGI in test [1] was 4.2 µM; in [2] it was 18.3 µM; in test [3], more than 100 µM; in test [4], 21.2 µM; in test [5], more than 100 µM; in test [6], more than 100 µM. Besides, the TGI in test [7] was more than 100 µM; in [8], more than 100 µM; in test [9], more than 100 µM; in [10], 3.98 µM.

In the case of `O=C(Cc1ccc(/C=C/C(=O)c2ncc[nH]2)cc1)Nc1ccc(F)cc1`, the GI50 in test [1] is 8.92 µM; in test [2], 6.94 µM; in test [3] it was 4.82 µM; in [4], 5.98 µM; in [5], 1.72 µM; in test [6] it was 9.14 µM. The GI50 in test [7] was 2.8 µM; in [8] it was 5.1 µM; in test [9], 2.93 µM; in [10] it was 1.2 µM. The TGI in test [1] is 22.9 µM; in test [2], more than 33.3 µM; in [3], 9.62 µM; in [4], 17.6 µM; in [5], 14.6 µM; in test [6], more than 33.3 µM. Further, the TGI in [7] amounted to 11.9 µM; in test [8], 26.3 µM; in [9] it was 27.1 µM; in [10] it was 4.5 µM.

Take `Nc1nccc(-c2c(-c3ccc(F)cc3)ncn2C2CCNCC2)n1`: the GI50 in test [1] is 8.88 µM and 2.16 µM; in [2] it was 1.97 µM and 1.66 µM; in test [3], 7.61 µM and 1.41 µM; in test [4], 13.3 µM and 3.85 µM; in [5], 1.55 µM and 1.36 µM; in test [6] it was 1.86 µM and 2.77 µM. The GI50 in test [7] was 13.6 µM and 4.05 µM; in [8] it was 5.92 µM and 2.76 µM; in test [9], 7.71 µM and 2.13 µM; in [10], 3.67 µM and 1.95 µM. Moreover, the TGI in [1] was more than 25 µM; in [2] it was more than 25 µM; in test [3], more than 25 µM; in test [4], more than 25 µM; in test [5], more than 25 µM; in [6], > 25 µM and 13.1 µM. For the same molecule, the TGI in test [7], in test [8], in [9] and in test [10] was more than 25 µM throughout.

For `Cc1cccc(N(C)C(=O)[C@@H]2[C@H](O)CCN2c2nc(C)cc(C(F)(F)F)c2C#N)c1`, the GI50 was 21.9 µM in [1]; 21.9 µM in test [2]; 18.3 µM in test [3]; 16.3 µM in test [4]; 31.8 µM in test [5]; 18.7 µM in test [6]. Also, the GI50 was 15.4 µM in test [7], 26.5 µM in test [8], 17.3 µM in test [9] and 28.8 µM in [10]. Further, the TGI in test [1] was 69.8 µM; in [2], more than 100 µM; in test [3], 41.9 µM; in test [4], 34.5 µM; in [5], more than 100 µM; in test [6] it was more than 100 µM. The TGI was 67.2 µM in [7], more than 100 µM in test [8], 50.1 µM in [9] and more than 100 µM in test [10].

For `CCOC(=O)/C(=C/N1CCN(C(=O)c2ccco2)C1=S)C(=O)c1ccccc1`, the GI50 in test [2] was 11.6 µM; in test [3], 8.48 µM; in test [4], 8.86 µM; in test [5], 4.87 µM; in [6] it was 31 µM; in [7], 19.4 µM. In addition, the results for the GI50 in test [8], in test [9] and in test [10] were 7.18 µM, 8.1 µM and 11.5 µM, respectively. For the same molecule, the TGI in test [2] was 36.3 µM; in test [3], 17.6 µM; in test [4] it was 21 µM; in test [5], 15.4 µM; in test [6], more than 50 µM; in test [7] it was more than 50 µM. In addition, the TGI in test [8] was 19.9 µM; in test [9] it was 17.4 µM; in test [10] it was more than 50 µM.

Consider `C=C1CC[C@@H]2[C@](C)(COC(C)=O)[C@H](OC(C)=O)CC[C@@]2(C)[C@@H]1CC(Nc1ccc(S(=O)(=O)NC(C)=O)cc1)C1=CCOC1=O` (some centres undefined), for which the GI50 is 10.3 µM in [1]; 8.41 µM in test [2]; 7.54 µM in test [3]; 2.86 µM in test [4]; 6.72 µM in test [5]; 4.14 µM in [6]. Further, the GI50 is 6.56 µM in test [7], 8.78 µM in test [8], 1.78 µM in [9] and 3.49 µM in test [10]. The TGI in [1] was 20.1 µM; in test [2], 18.3 µM; in [3], 16.5 µM; in test [4], 11.9 µM; in test [5], 17.9 µM; in test [6], 13.7 µM. Further, the TGI in test [7] is 16.8 µM; in [8], 20.5 µM; in test [9], 5.4 µM; in [10] it was 12 µM.

As for `Fc1cc2[nH]ncc2c2c3c(c(-c4cn[nH]c4C(F)(F)F)nc12)CCCC3`, the GI50 is 1.56 µM in test [1]; 2.06 µM in test [2]; 0.947 µM in test [3]; 1.31 µM in test [4]; 1.16 µM in test [5]; 1.86 µM in [7]. For the same molecule, the GI50 is 1.97 µM in test [8], 1.7 µM in [9] and 2.57 µM in test [10]. The TGI in [1] was 3.09 µM; in [2] it was more than 100 µM; in [3], 7.58 µM; in test [4] it was 4.12 µM; in [5], 9.92 µM; in test [7], more than 100 µM. Also, the figures for the TGI in test [8], in [9] and in test [10] were 5.86 µM, 8.63 µM and more than 100 µM, respectively.

`CCSCC1CC(O)(c2ccccc2)CC(c2ccc(F)cc2)O1` (centres undefined): the GI50 in test [1] was 1.44 µM; in [2] it was 2.74 µM; in test [3], 2.37 µM; in [4] it was 1.76 µM; in test [5], 2.24 µM; in test [6], 2.69 µM. Moreover, the GI50 is 1.82 µM in test [7], 2.41 µM in test [8], 1.74 µM in [9] and 1.63 µM in test [10]. The TGI in test [1] came to 2.77 µM; in test [2], 11 µM; in [3], 6.56 µM; in [4], 3.32 µM; in test [5] it was 4.63 µM; in [6], 11.5 µM. For the same molecule, the TGI came to 4.89 µM in [7], 6.11 µM in test [8], 3.17 µM in test [9] and 3.3 µM in test [10].

Take `CCN1C/C(=C\c2cc(OC)c(OC)cc2OC)C(=O)/C(=C/c2cc(OC)c(OC)cc2OC)C1`: the GI50 in test [1] was 2.56 µM; in test [2], 3.67 µM; in test [3], 2.08 µM; in [4], 2.3 µM; in test [6], 3.73 µM; in test [7], 4.25 µM. Also, the GI50 in test [9] is 3.11 µM; in test [10], 3.08 µM. For the same molecule, the TGI is 7.81 µM in test [1]; more than 100 µM in test [2]; 4.45 µM in [3]; 5.37 µM in [4]; more than 100 µM in [6]; more than 100 µM in [7]. Also, the TGI worked out at 9.14 µM in [9] and 14.3 µM in test [10].

As for `CC1=CC(=O)C2=C(C)CCC3C(C)C(=O)OC3C12` (centres undefined), the TGI in [1], in test [2], in test [3], in test [4], in test [5] and in [6] was more than 100 µM each time. Also, the TGI in test [7], in test [8], in [9] and in test [10] was more than 100 µM throughout.

For the molecule `CCC(C)[C@H]1O[C@]2(CC[C@@H]1C)C[C@@H]1C[C@@H](C/C=C(\C)[C@@H](OC3C[C@H](OC)C(O[C@H]4C[C@H](OC)[C@@H](O)[C@H](C)O4)[C@H](C)O3)[C@@H](C)/C=C/C=C3\CO[C@@H]4[C@H](O)C(C)=C[C@@H](C(=O)O1)[C@]34O)O2` (some centres undefined), the GI50 is 1.79 µM in [1]; 2.07 µM in test [2]; 1.73 µM in [3]; 3.15 µM in [4]; 2.91 µM in [5]; 3.28 µM in test [6]. For the same molecule, the GI50 was 2.64 µM in test [7], 4.14 µM in test [8], 3.08 µM in test [9] and 2.21 µM in [10]. In addition, the TGI was 7.72 µM in test [1]; 11.3 µM in [2]; 3.48 µM in test [3]; 11.2 µM in test [4]; 10.6 µM in test [5]; 10.8 µM in [6]. In addition, the TGI in [7] amounted to 12.8 µM; in test [8] it was 15.6 µM; in [9], 11.4 µM; in test [10] it was 10.6 µM.

For `COC(=O)c1n[nH]c(C)c1N=NN(C)CCC#N`, the TGI in test [1] is more than 100 µM; in test [2], more than 100 µM; in [3], 25.4 µM; in [4], more than 100 µM; in test [5], 36.5 µM; in test [6], 30.7 µM. Moreover, the TGI in test [7] amounted to 74.7 µM; in [8], 50 µM; in [9], 33.8 µM; in test [10], 41.5 µM.

Regarding `CC(C)C1=CC(=O)C(C)(C2C(O)CC3(C)C4CC=C5C(CCC(OC6OC(CO)C(O)C(O)C6OC6OC(C)C(O)C(O)C6O)C5(C)C)C4(C)C(=O)CC23C)O1` (centres undefined), the TGI in test [1], in test [2], in test [3], in test [4], in test [5] and in test [6] was more than 100 µM throughout. The TGI in test [7], in test [8], in [9] and in [10] was more than 100 µM in each case.

Consider `COc1ccc2c(c1OC)C[C@@H]1c3c(cc4c(c3-2)OCO4)CCN1C`, for which the TGI in test [1] was 63.5 µM; in test [2], more than 100 µM; in test [3], more than 100 µM; in [4], 84.8 µM; in test [5], 91.4 µM; in test [6] it was more than 100 µM. Further, the TGI in test [7] was 89.2 µM; in [8], more than 100 µM; in test [9], more than 100 µM; in [10], more than 100 µM.

With `CC(=O)c1ccc2c(c1)c1cc(C(C)=O)ccc1n2CCNC(C)C`, the GI50 in [1] was 0.398 µM; in test [2], 0.433 µM; in test [4], 0.358 µM; in test [5], 0.308 µM; in test [6], 0.37 µM; in test [7] it was 0.317 µM. The GI50 in [8] is 0.417 µM; in test [9], 0.325 µM; in [10], 0.386 µM. Besides, the TGI in [1] came to 1.89 µM; in test [2] it was 4.31 µM; in [4], 1.72 µM; in [5] it was 1.81 µM; in test [6], 2.9 µM; in [7] it was 1.76 µM. Moreover, the TGI was found to be 3.33 µM in test [8], 2.07 µM in [9] and 6.05 µM in test [10].

For the molecule `Cc1nc2ccc(Nc3nc(Cl)nc(N4CCOCC4)n3)cc2n1Cc1ccccc1`, the GI50 in test [1] is 2.85 µM; in test [2], 50.3 µM; in [3], 9.35 µM; in test [5], 11.9 µM; in [7], 10 µM; in test [8], 3.11 µM. Also, the GI50 in [9] is 6.79 µM. For the same molecule, the TGI in [1] was more than 100 µM; in [2] it was more than 100 µM; in [3], 28.7 µM; in test [5], more than 100 µM; in [7], more than 100 µM; in test [8], more than 100 µM. The molecule also displayed a TGI in test [9] of 88 µM.
